Biological target: T1, human TRPV4 (Homo sapiens, UniProt Q9HBA0)
T1 construct: expressed in transfected cells; host or cells: HeLa cells, transient transfection with a pcDNA 3.1 Directional TOPO vector
Experiment: Evaluation of TRPV4 activity-inhibiting action: intracellular calcium ion influx rate in human TRPV4-expressing HeLa cells stimulated with GSK1016790a (Fluo 4)
Format: cell-based
Settings: for calcium ion influx into cells by a TRPV4 agonist (result in words): concentration-dependent, 100 and 300 μM, vs GSK1016790a + DMSO, Dunnett's test; for Intracellular Ca^2+ influx rate (%): GSK + DMSO defined as 100%, n = 3, Mean ± S.E.
Method: HeLa cells were cultured using a DMEM/F12 medium containing 10% fetal bovine serum. The HeLa cells were seeded in a T-75 cell culture flask at 5×10^5 cells/flask. The cells were cultured for 3 days, were then transfected with the human TRPV4 gene expression vector (8 μg) produced in the above (2) using TransIT-HeLaMONSTER Transfection Kit, and were cultured for 1 day.
The cells were detached with Detachin, were seeded in a 96-well optical bottom plate containing a DMEM/F12 medium containing 10% fetal bovine serum at a cell density of 1.5×10^4 cells/90 μL/well, and were further cultured for 1 day.
The intracellular calcium ion influx rate was measured using Calcium Kit II-fluo 4. Loading buffer containing Fluo 4-AM and Hanks' balanced salt solution were mixed at 1:1 and were then added to the human TRPV4-expressing cells produced in the above (3) at 180 μL/well, followed by incubation at 37° C. for 1 hour. Subsequently, the fluorescence intensity (excitation wavelength: 488 nm, fluorescence wavelength: 524 nm) was measured every 2 seconds at 37° C. using a fluorescence plate reader FDSS3000 (Hamamatsu Photonics K.K.). 30 seconds after the start of the measurement, GSK1016790a as a TRPV4 agonist and the 4-O-methyl-rosmarinic acid or 3,4′-di-O-methyl-rosmarinic acid solution prepared in the above Manufacturing Example as a sample were each diluted with Hanks' balanced salt solution, and a mixture solution thereof (mixed immediately before the addition) was added at 20 μL/well. The change in fluorescence intensity was measured every 2 seconds for 300 seconds. GSK1016790a was added to give a final concentration of 3 nM.
In addition, as a positive control for TRPV4 activity inhibition, HC067047, which is a TRPV4 antagonist, was added at a final concentration of 10 μM. 4-O-Methyl-rosmarinic acid, 3,4′-di-O-methyl-rosmarinic acid, GSK1016790a, and HC067047 were all used by dissolving in dimethyl sulfoxide (DMSO).
The TRPV4 activity of a sample was calculated by the following expression, and the intracellular calcium ion influx rate due to the treatment with a TRPV4 agonist, GSK1016790a, was defined as 100%.
Intracellular calcium ion influx rate (%)=[(F max/F0)−(F max C2/F0C2)]/[(F max C1/F0C1)−(F max C2/F0C2)]×100
F max: Maximum fluorescence intensity of the well containing GSK1016790a and a sample in the period from 0 to 300 seconds after the start of the measurement,
F max C1: Maximum fluorescence intensity of the well containing GSK1016790a and a solvent in the period from 0 to 300 seconds after the start of the measurement,
F max C2: Maximum fluorescence intensity of the well containing only a solvent in the period from 0 to 300 seconds after the start of the measurement,
F0: Fluorescence intensity of the well of F max immediately after the start of the measurement,
F0C1: Fluorescence intensity of the well of F max C1 immediately after the start of the measurement, and
F0C2: Fluorescence intensity of the well containing only a solvent immediately after the start of the measurement.
The intracellular calcium ion influx rate (each group, n=3) when a sample was added was compared to that when GSK1016790a and a solvent (DMSO) were added and was examined by a Dunnett's test. […] The results are expressed as the mean value (Mean)±standard error (S.E.).

[1] = sample 100 μM with GSK1016790a 3 nM
[2] = sample 300 μM with GSK1016790a 3 nM

T1 sequence (Q9HBA0 whole entry): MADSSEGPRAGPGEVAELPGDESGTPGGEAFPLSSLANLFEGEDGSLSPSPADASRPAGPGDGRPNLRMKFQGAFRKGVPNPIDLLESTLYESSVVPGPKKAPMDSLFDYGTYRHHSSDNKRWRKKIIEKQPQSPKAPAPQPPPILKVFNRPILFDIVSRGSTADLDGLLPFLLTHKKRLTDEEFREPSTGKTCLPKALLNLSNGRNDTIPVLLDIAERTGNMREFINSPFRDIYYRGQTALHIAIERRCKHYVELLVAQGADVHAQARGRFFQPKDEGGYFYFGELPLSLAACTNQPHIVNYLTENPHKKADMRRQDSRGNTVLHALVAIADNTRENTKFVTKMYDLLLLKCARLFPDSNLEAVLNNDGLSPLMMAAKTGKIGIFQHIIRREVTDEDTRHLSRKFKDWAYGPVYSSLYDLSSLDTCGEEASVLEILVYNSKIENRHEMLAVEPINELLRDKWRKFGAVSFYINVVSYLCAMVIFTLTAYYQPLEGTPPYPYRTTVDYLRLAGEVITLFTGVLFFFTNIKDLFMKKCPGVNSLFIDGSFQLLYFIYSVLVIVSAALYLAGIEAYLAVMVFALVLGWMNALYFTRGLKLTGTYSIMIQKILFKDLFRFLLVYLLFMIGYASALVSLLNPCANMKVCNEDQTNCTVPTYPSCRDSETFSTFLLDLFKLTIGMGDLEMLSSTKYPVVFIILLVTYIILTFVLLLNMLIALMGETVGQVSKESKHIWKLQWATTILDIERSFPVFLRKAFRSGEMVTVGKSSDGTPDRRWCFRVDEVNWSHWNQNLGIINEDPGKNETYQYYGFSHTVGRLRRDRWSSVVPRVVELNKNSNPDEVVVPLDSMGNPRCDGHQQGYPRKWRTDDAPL

Row | calcium ion influx into cells by a TRPV4 agonist (result in words) | Intracellular Ca^2+ influx rate (%) [1] | Intracellular Ca^2+ influx rate (%) [2] | Structure (SMILES) | Intracellular Ca^2+ influx rate (%) (sample 10 μM with GSK1016790a 3 nM)
1 | significantly decreased | 78.81 ± 1.73 (P < 0.001) % | 71.25 ± 5.52 (P < 0..001) % | COc1ccc(/C=C/C(=O)OC(Cc2ccc(O)c(OC)c2)C(=O)O)cc1O (stereo not shown) [3,4′-DiMe-RA, (E)-3-(4-hydroxy-3-methoxyphenyl)-2-{[3-(3-hydroxy-4-methoxyphenyl)acryloyl]oxy}propionic acid] | 
2 | significantly decreased | 92.65 ± 0.89 (N.S.) % | 82.90 ± 3.04 (P < 0.01) % | COc1ccc(CC(OC(=O)/C=C/c2ccc(O)c(O)c2)C(=O)O)cc1O (stereo not shown) [4-Me-RA, (E)-3-(3-hydroxy-4-methoxyphenyl)-2-{[3-(3,4-dihydroxyphenyl)acryloyl]oxy}propionic acid] | 
3 |  |  |  | Cc1c(C(=O)Nc2cccc(C(F)(F)F)c2)cc(-c2ccccc2)n1CCCN1CCOCC1 [HC067047, reference compound] | 2.46 ± 0.14 (P < 0.001) %

— US20210300859A1, “ROSMARINIC ACID DERIVATIVE OR SALT THEREOF” (KAO CORPORATION, priority 2018, published 2021)
